Source: PMC4738175 (Cancer letters, 2015)

How the values were obtained:
[1] = system: phosphorylation of MEK1/2 and ERK1/2; assay: Western blot of phosphorylated MEK1/2 and ERK1/2 in PK03 cells; format: cell-based, mouse; settings: PK03 cells, 3, 10 or 30μM, 24 hours
[2] = system: phosphorylation of c-RAF; assay: Western blot of phosphorylated c-RAF in PK03 cells; format: cell-based, mouse; settings: PK03 cells, 3, 10 or 30μM, 24 hours
[3] = system: sEH; assay: Plasma oxylipin metabolic profile by LC-MS/MS in mice implanted with PK03 cells; format: in vivo
[4] = Toxicity in mice; format: in vivo; settings: 35 days treatment
[5] = in vivo; settings: male, Swiss Webster, mouse, po, 1 mg/kg
[6] = system: PK03 cells; assay: Colony formation assay in PK03 cells; settings: Mus musculus, read-out: IC50 dose, PK03 cell growth
[7] = system: PK03 cells; settings: 10mg/kg body weight in drinking water, end of 5 weeks, vs PK03 control
[8] = system: PK03 tumors; assay: Histopathology and immunohistochemistry; settings: 10mg/kg; for number of MPO-labeled neutrophils/macrophages per high power field: 40X objective lens, P< 0.05 vs control; for tumor morphology vs PK03 control tumors: histopathology
[9] = system: phosphorylated ERK1/2; assay: Immunohistochemical staining of phosphorylated ERK1/2 in PK03 tumors; settings: 10mg/kg, n = 3 mice/group, vs PK03 control
[10] = target: T1, sEH (Homo sapiens, UniProt P34913); assay: sEH enzyme assay; format: biochemical; settings: read-out: sEH IC50
T1 sequence (P34913 1-555): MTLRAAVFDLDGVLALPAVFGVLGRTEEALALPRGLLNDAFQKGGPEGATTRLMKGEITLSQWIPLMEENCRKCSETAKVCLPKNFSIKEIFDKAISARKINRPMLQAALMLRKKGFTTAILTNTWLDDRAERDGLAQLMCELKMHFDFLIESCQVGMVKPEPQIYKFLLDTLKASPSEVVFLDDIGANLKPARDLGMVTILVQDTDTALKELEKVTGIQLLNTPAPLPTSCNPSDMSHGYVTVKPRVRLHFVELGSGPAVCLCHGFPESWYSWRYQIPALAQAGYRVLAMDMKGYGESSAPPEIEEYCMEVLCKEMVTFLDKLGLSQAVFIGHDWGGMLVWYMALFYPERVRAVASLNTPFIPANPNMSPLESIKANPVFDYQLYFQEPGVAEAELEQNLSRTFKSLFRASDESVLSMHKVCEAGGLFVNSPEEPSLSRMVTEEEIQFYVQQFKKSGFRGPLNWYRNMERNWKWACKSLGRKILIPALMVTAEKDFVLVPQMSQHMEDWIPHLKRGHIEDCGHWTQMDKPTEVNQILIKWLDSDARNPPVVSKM

[11] = cited from earlier work

Row | SMILES | inhibition of phosphorylation of MEK1/2 and ERK1/2 [1] | inhibition of phosphorylation of c-RAF [2] | effect on cyclooxygenase and lipoxygenase mediated metabolites (prostaglandins, thromboxane, leukotrienes, HETE) [3] | toxic effect grossly and histopathologically [4] | half-life [5] [h] | IC50 [6] [µM] | tumor size [7] [mm^3] | tumor weight [7] [g] | number of MPO-labeled neutrophils/macrophages per high power field [8] | tumor morphology vs PK03 control tumors [8] | staining intensity of phosphorylated ERK1/2 [9] | IC50 [10] [µM] | clinically achievable plasma concentration [11] [µM] | Tmax [5] [h]
1 | CNC(=O)c1cc(O[C@H]2CC[C@H](NC(=O)Nc3ccc(Cl)c(C(F)(F)F)c3)CC2)ccn1 [t-CUPM, trans-4-{4-[3-(4-chloro-3-trifluoromethyl-phenyl)-ureido]-cyclohexyloxy}-pyridine-2-carboxylic acid methylamide] | significantly inhibited | significantly inhibited | no significant difference | did not produce any toxic effect | 2.2 ± 1.6 | 8.1 | 275.9 ± 68.9 | 0.25 ± 0.06 | 12.4 ± 6.1 | more glandular differentiation with lumen formation and less inflammatory cells reaction | 60 ± 19.2 |  |  | 
2 | CNC(=O)c1cc(O[C@H]2CC[C@@H](NC(=O)Nc3ccc(Cl)c(C(F)(F)F)c3)CC2)ccn1 [c-CUPM] |  |  |  |  |  |  |  |  |  |  |  | 0.0005 |  | 
3 | CNC(=O)c1cc(Oc2ccc(NC(=O)Nc3ccc(Cl)c(C(F)(F)F)c3)cc2)ccn1 [Sorafenib, reference compound] | significantly inhibited | but not by sorafenib or t-AUCB | no significant difference |  | 1.5 ± 0.5 | 9 |  |  | 15.1 ± 9.8 | more glandular differentiation with lumen formation and less inflammatory cells reaction |  |  | 10 | 2
